Consider seven compounds from BindingDB's records for doi:10.1016/j.bioorg.2015.05.008 (Universidade Do Porto, 2015).

Common to all, as to experiment: Radioligand Binding Assay
The target of one assay is T1, Adenosine receptor A1 (Homo sapiens, UniProt P30542).
T1 sequence (P30542 whole entry): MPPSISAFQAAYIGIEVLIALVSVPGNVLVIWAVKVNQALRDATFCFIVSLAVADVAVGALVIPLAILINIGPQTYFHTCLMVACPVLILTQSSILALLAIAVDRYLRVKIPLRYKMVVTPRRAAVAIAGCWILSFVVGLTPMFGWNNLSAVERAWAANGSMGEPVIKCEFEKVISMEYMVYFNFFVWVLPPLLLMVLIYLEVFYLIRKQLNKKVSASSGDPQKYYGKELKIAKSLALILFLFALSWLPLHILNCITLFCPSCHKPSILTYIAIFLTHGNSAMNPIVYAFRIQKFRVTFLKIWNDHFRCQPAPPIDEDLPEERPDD
The protocol: (§1) The radioligands used were 1 nM (2R,3R,4S,5R)-2-(2-chloro-6-cyclopentylamino-purin-9-yl)-5-hydroxymethyl-tetrahydro-3,4-diol ([3H]CCPA) for hA1, 10 nM (1-(6-amino-9H-purin-9-yl)-1-deoxy-N-ethyl-β-D-ribofuronamide) ([3H]NECA) for hA2a, and 1 nM 2-(1-hexynyl)-N6-methyladenosine [3H] ([3H]HEMADO) for hA3 receptors.

The target of another assay is T2, Adenosine receptor A3 (Homo sapiens, UniProt P0DMS8).
T2 sequence (P0DMS8 whole entry): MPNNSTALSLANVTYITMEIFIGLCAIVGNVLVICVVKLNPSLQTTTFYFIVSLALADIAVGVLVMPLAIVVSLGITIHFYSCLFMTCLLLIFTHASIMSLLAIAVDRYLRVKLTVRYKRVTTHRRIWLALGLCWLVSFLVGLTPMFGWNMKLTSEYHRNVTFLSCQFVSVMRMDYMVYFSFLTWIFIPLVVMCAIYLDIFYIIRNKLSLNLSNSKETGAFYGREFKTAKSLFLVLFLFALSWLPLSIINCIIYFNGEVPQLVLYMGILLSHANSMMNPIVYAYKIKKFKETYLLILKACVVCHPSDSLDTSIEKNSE
The protocol:
as §1

In another assay the target is Adenosine receptor A2a (Homo sapiens, UniProt P29274). The protocol:
as §1

Chain of Adenosine receptor A2a (P29274 whole entry): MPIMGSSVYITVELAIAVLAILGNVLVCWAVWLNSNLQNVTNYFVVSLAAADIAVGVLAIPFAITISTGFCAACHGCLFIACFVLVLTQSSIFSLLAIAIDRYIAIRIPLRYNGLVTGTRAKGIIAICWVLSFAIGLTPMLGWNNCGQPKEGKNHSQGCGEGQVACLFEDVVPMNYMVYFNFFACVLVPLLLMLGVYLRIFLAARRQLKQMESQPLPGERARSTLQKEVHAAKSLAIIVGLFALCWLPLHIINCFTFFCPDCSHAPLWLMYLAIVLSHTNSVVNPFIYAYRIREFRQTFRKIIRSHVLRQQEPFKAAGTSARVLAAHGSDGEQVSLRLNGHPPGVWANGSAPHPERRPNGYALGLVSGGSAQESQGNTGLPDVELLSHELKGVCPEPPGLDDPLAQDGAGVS

`O=C(Nc1cc2ccccc2oc1=O)c1ccccc1` [N-(2-oxidanylidenechromen-3-yl)benzamide]: the Ki (as a rule, the equilibrium dissociation constant of an inhibitor or competing ligand from its target) on Adenosine receptor A1 is above 100 µM; at Adenosine receptor A3 it was 3.24 µM; on Adenosine receptor A2a, above 100 µM.
As to `C=CC(=O)Nc1c(O)c2ccccc2oc1=O` [N-(4-Hydroxycoumarin-3-yl)acrylamide (3)], the Ki on Adenosine receptor A1, on Adenosine receptor A3 and at Adenosine receptor A2a was above 100 µM in each case.
With `O=C(Nc1c(O)c2ccccc2oc1=O)c1ccccc1` [N-(4-hydroxycoumarin-3-yl)benzamide (5)], the inhibition constant (Ki) at Adenosine receptor A1, on Adenosine receptor A3 and on Adenosine receptor A2a was above 100 µM each time.
Consider `C=CC(=O)Nc1cc2ccccc2oc1=O` [N-(Coumarin-3-yl)acrylamide (2)], for which the values for the Ki on Adenosine receptor A1, on Adenosine receptor A3 and at Adenosine receptor A2a were 8.95 µM, above 100 µM and 12.2 µM, respectively.
Turning to `O=C(Nc1cc2ccccc2oc1=O)c1ccco1` [N-(Coumarin-3-yl)furan-2-carboxamide (8)], the Ki was 5.18 µM at Adenosine receptor A1, 9.79 µM on Adenosine receptor A3 and above 100 µM at Adenosine receptor A2a.
In the same order, the values of `O=C(Nc1cc2ccccc2oc1=O)c1cccnc1` [N-(coumarin-3-yl)nicotinamide (6)] are above 100 µM, above 100 µM and above 100 µM.
In the case of `O=C(Nc1cc2ccccc2oc1=O)c1cccs1` [N-(coumarin-3-yl)thiophene-2-carboxamide (7)], the figures for the inhibitory constant (Ki) at Adenosine receptor A1, on Adenosine receptor A3 and at Adenosine receptor A2a were 16.2 µM, above 60 µM and above 100 µM, respectively.
